Laboratory results as given in ChEMBL document CHEMBL3045554, “Synthesis and antimicrobial screening of N-(1-methyl-1H-pyrazole-4-carbonyl)-thiourea derivatives” (2012).
Converted amounts (≈) assume the structure as drawn. One block for each molecule: values may come before it. The source made the active and inactive calls. The calls are words filed in the database; no cut-off is given here.

Key:
[1] = tested on: Acinetobacter baumannii; assay: Antimicrobial activity against Acinetobacter baumannii 15896 by microdilution method; type: functional
[2] = tested on: Klebsiella pneumoniae; assay: Antimicrobial activity against Klebsiella pneumoniae 126/2007 by microdilution method; type: functional
[3] = tested on: Bacillus subtilis; assay: Antimicrobial activity against Bacillus subtilis 10.10.2006 by microdilution method; type: functional
[4] = tested on: Pseudomonas aeruginosa; assay: Antimicrobial activity against Pseudomonas aeruginosa 5541 by microdilution method; type: functional
[5] = tested on: Staphylococcus aureus; assay: Antimicrobial activity against Staphylococcus aureus by microdilution method; type: functional
[6] = tested on: Escherichia coli; assay: Antimicrobial activity against Escherichia coli 637/2007 by microdilution method; type: functional
[7] = tested on: Enterococcus faecalis; assay: Antimicrobial activity against Enterococcus faecalis 13773 by microdilution method; type: functional
[8] = tested on: Pseudomonas aeruginosa; assay: Effect on DNase production in Pseudomonas aeruginosa 5541 after 24 hr; type: functional, organism-based
[9] = tested on: Bacillus subtilis; assay: Effect on DNase production in Bacillus subtilis 10.10.2006 after 24 hr; type: functional, organism-based
[10] = tested on: Escherichia coli; assay: Effect on esculethol production in Escherichia coli 637/2007 after 24 hr by esculin hydrolysis test; type: functional, organism-based
[11] = tested on: Bacillus subtilis; assay: Inhibition of caseinase production in Bacillus subtilis 10.10.2006 after 24 hr by casein hydrolysis assay; type: functional, organism-based
[12] = tested on: Klebsiella pneumoniae; assay: Effect on esculethol production in Klebsiella pneumoniae 126/2007 after 24 hr by esculin hydrolysis test; type: functional, organism-based
[13] = tested on: Pseudomonas aeruginosa; assay: Effect on amylase production in Pseudomonas aeruginosa 5541 after 24 hr by starch hydrolysis assay; type: functional, organism-based
[14] = tested on: Enterococcus faecalis; assay: Effect on amylase production in Enterococcus faecalis 13773 after 24 hr by starch hydrolysis assay; type: functional, organism-based
[15] = tested on: Klebsiella pneumoniae; assay: Effect on amylase production in Klebsiella pneumoniae 126/2007 after 24 hr by starch hydrolysis assay; type: functional, organism-based
[16] = tested on: Escherichia coli; assay: Effect on gelatinase production in Escherichia coli 637/2007 after 24 hr by gelatin hydrolysis test; type: functional, organism-based
[17] = tested on: Klebsiella pneumoniae; assay: Inhibition of lecithinase production in Klebsiella pneumoniae 126/2007 after 7 days; type: functional, organism-based
[18] = tested on: Pseudomonas aeruginosa; assay: Effect on gelatinase production in Pseudomonas aeruginosa 5541 after 24 hr by gelatin hydrolysis test; type: functional, organism-based
[19] = tested on: Pseudomonas aeruginosa; assay: Effect on esculethol production in Pseudomonas aeruginosa 5541 after 24 hr by esculin hydrolysis test; type: functional, organism-based
[20] = tested on: Pseudomonas aeruginosa; assay: Inhibition of lecithinase production in Pseudomonas aeruginosa 5541 after 7 days; type: functional, organism-based
[21] = tested on: Bacillus subtilis; assay: Inhibition of lecithinase production in Bacillus subtilis 10.10.2006 after 7 days; type: functional, organism-based
[22] = tested on: Acinetobacter baumannii; assay: Inhibition of lecithinase production in Acinetobacter baumannii 15896 after 7 days; type: functional, organism-based
[23] = tested on: Staphylococcus aureus; assay: Effect on lipase production in Staphylococcus aureus after 7 days; type: functional, organism-based
[24] = tested on: Staphylococcus aureus; assay: Effect on gelatinase production in Staphylococcus aureus after 24 hr by gelatin hydrolysis test; type: functional, organism-based
[25] = tested on: Acinetobacter baumannii; assay: Effect on amylase production in Acinetobacter baumannii 15896 after 24 hr by starch hydrolysis assay; type: functional, organism-based
[26] = tested on: Pseudomonas aeruginosa; assay: Effect on lipase production in Pseudomonas aeruginosa 5541 after 7 days; type: functional, organism-based
[27] = tested on: Acinetobacter baumannii; assay: Inhibition of caseinase production in Acinetobacter baumannii 15896 after 24 hr by casein hydrolysis assay; type: functional, organism-based
[28] = tested on: Bacillus subtilis; assay: Effect on esculethol production in Bacillus subtilis 10.10.2006 after 24 hr by esculin hydrolysis test; type: functional, organism-based
[29] = tested on: Staphylococcus aureus; assay: Inhibition of lecithinase production in Staphylococcus aureus after 7 days; type: functional, organism-based
[30] = tested on: Klebsiella pneumoniae; assay: Effect on lipase production in Klebsiella pneumoniae 126/2007 after 7 days; type: functional, organism-based
[31] = tested on: Enterococcus faecalis; assay: Inhibition of caseinase production in Enterococcus faecalis 13773 after 24 hr by casein hydrolysis assay; type: functional, organism-based
[32] = tested on: Pseudomonas aeruginosa; assay: Inhibition of caseinase production in Pseudomonas aeruginosa 5541 after 24 hr by casein hydrolysis assay; type: functional, organism-based
[33] = tested on: Staphylococcus aureus; assay: Inhibition of caseinase production in Staphylococcus aureus after 24 hr by casein hydrolysis assay; type: functional, organism-based
[34] = tested on: Escherichia coli; assay: Inhibition of caseinase production in Escherichia coli 637/2007 after 24 hr by casein hydrolysis assay; type: functional, organism-based
[35] = tested on: Escherichia coli; assay: Effect on amylase production in Escherichia coli 637/2007 after 24 hr by starch hydrolysis assay; type: functional, organism-based
[36] = tested on: Bacillus subtilis; assay: Effect on amylase production in Bacillus subtilis 10.10.2006 after 24 hr by starch hydrolysis assay; type: functional, organism-based
[37] = tested on: Bacillus subtilis; assay: Effect on lipase production in Bacillus subtilis 10.10.2006 after 7 days; type: functional, organism-based
[38] = tested on: Acinetobacter baumannii; assay: Effect on lipase production in Acinetobacter baumannii 15896 after 7 days; type: functional, organism-based
[39] = tested on: Escherichia coli; assay: Inhibition of lecithinase production in Escherichia coli 637/2007 after 7 days; type: functional, organism-based
[40] = tested on: Klebsiella pneumoniae; assay: Inhibition of caseinase production in Klebsiella pneumoniae 126/2007 after 24 hr by casein hydrolysis assay; type: functional, organism-based
[41] = tested on: Acinetobacter baumannii; assay: Effect on esculethol production in Acinetobacter baumannii 15896 after 24 hr by esculin hydrolysis test; type: functional, organism-based
[42] = tested on: Enterococcus faecalis; assay: Effect on esculethol production in Enterococcus faecalis 13773 after 24 hr by esculin hydrolysis test; type: functional, organism-based
[43] = tested on: Enterococcus faecalis; assay: Effect on lipase production in Enterococcus faecalis 13773 after 7 days; type: functional, organism-based
[44] = tested on: Acinetobacter baumannii; assay: Effect on gelatinase production in Acinetobacter baumannii 15896 after 24 hr by gelatin hydrolysis test; type: functional, organism-based
[45] = tested on: Enterococcus faecalis; assay: Inhibition of lecithinase production in Enterococcus faecalis 13773 after 7 days; type: functional, organism-based
[46] = tested on: Acinetobacter baumannii; assay: Effect on DNase production in Acinetobacter baumannii 15896 after 24 hr; type: functional, organism-based
[47] = tested on: Klebsiella pneumoniae; assay: Effect on DNase production in Klebsiella pneumoniae 126/2007 after 24 hr; type: functional, organism-based
[48] = tested on: Escherichia coli; assay: Effect on DNase production in Escherichia coli 637/2007 after 24 hr; type: functional, organism-based
[49] = tested on: Enterococcus faecalis; assay: Effect on gelatinase production in Enterococcus faecalis 13773 after 24 hr by gelatin hydrolysis test; type: functional, organism-based
[50] = tested on: Bacillus subtilis; assay: Effect on gelatinase production in Bacillus subtilis 10.10.2006 after 24 hr by gelatin hydrolysis test; type: functional, organism-based
[51] = tested on: Escherichia coli; assay: Effect on lipase production in Escherichia coli 637/2007 after 7 days; type: functional, organism-based
[52] = tested on: Enterococcus faecalis; assay: Effect on DNase production in Enterococcus faecalis 13773 after 24 hr; type: functional, organism-based
[53] = tested on: Klebsiella pneumoniae; assay: Effect on gelatinase production in Klebsiella pneumoniae 126/2007 after 24 hr by gelatin hydrolysis test; type: functional, organism-based
[54] = tested on: Staphylococcus aureus; assay: Effect on DNase production in Staphylococcus aureus after 24 hr; type: functional, organism-based
[55] = tested on: Staphylococcus aureus; assay: Effect on amylase production in Staphylococcus aureus after 24 hr by starch hydrolysis assay; type: functional, organism-based
[56] = tested on: Staphylococcus aureus; assay: Effect on esculethol production in Staphylococcus aureus after 24 hr by esculin hydrolysis test; type: functional, organism-based

Compound: CCc1ccc(NC(=S)NC(=O)c2cnn(C)c2)cc1
- MIC [1]: > 1000 µg/mL
- MIC [2]: > 1000 µg/mL
- MIC [3]: > 1000 µg/mL
- MIC [4]: > 1000 µg/mL
- MIC [5]: > 1000 µg/mL
- MIC [6]: > 1000 µg/mL
- MIC [7]: > 1000 µg/mL

Compound: CC(C)c1ccc(NC(=S)NC(=O)c2cnn(C)c2)cc1
- MIC [1]: > 1000 µg/mL
- MIC [2]: > 1000 µg/mL
- MIC [3]: > 1000 µg/mL
- MIC [4]: > 1000 µg/mL
- MIC [5]: > 1000 µg/mL
- MIC [6]: > 1000 µg/mL
- MIC [7]: > 1000 µg/mL

Compound: CCC(C)c1ccc(NC(=S)NC(=O)c2cnn(C)c2)cc1 (stereo unspecified)
- MIC [1]: > 1000 µg/mL
- MIC [2]: > 1000 µg/mL
- MIC [3]: > 1000 µg/mL
- MIC [4]: > 1000 µg/mL
- MIC [5]: > 1000 µg/mL
- MIC [6]: > 1000 µg/mL
- MIC [7]: > 1000 µg/mL

Second part, led by results:

- MIC [1]: > 1000 µg/mL
- MIC [2]: > 1000 µg/mL
- MIC [3]: > 1000 µg/mL
- MIC [4]: > 1000 µg/mL
- MIC [5]: > 1000 µg/mL
- MIC [6]: > 1000 µg/mL
- MIC [7]: > 1000 µg/mL
Compound: CCCc1ccc(NC(=S)NC(=O)c2cnn(C)c2)cc1

- Activity [8]: inactive
- Activity [9]: inactive
- inhibition [11]: inactive
- MIC [1]: 250 µg/mL (≈ 0.867 mM)
- Activity [13]: inactive
- Activity [14]: inactive
- Activity [15]: inactive
- inhibition [17]: Active
- Activity [18]: inactive
- inhibition [20]: inactive
- MIC [2]: 1000 µg/mL (≈ 3.47 mM)
- inhibition [21]: inactive
- MIC [3]: 1000 µg/mL (≈ 3.47 mM)
- inhibition [22]: inactive
- Activity [25]: inactive
- Activity [26]: inactive
- inhibition [27]: inactive
- MIC [4]: 500 µg/mL (≈ 1.73 mM)
- Activity [30]: inactive
- inhibition [31]: inactive
- inhibition [32]: inactive
- Activity [36]: inactive
- Activity [37]: inactive
- Activity [38]: inactive
- inhibition [40]: inactive
- MIC [5]: 250 µg/mL (≈ 0.867 mM)
- Activity [43]: inactive
- MIC [6]: > 1000 µg/mL
- Activity [44]: inactive
- inhibition [45]: inactive
- MIC [7]: > 1000 µg/mL
- Activity [46]: inactive
- Activity [47]: inactive
- Activity [49]: inactive
- Activity [50]: inactive
- Activity [52]: inactive
- Activity [53]: inactive
Compound: CCc1ccccc1NC(=S)NC(=O)c1cnn(C)c1
- Activity [10]: inactive
- Activity [12]: inactive
- Activity [16]: inactive
- Activity [19]: inactive
- Activity [23]: inactive
- Activity [24]: inactive
- Activity [28]: inactive
- inhibition [29]: inactive
- inhibition [33]: inactive
- inhibition [34]: inactive
- Activity [35]: inactive
- inhibition [39]: inactive
- Activity [41]: inactive
- Activity [42]: inactive
- Activity [48]: inactive
- Activity [51]: inactive
- Activity [54]: inactive
- Activity [55]: inactive
- Activity [56]: inactive

- MIC [1]: > 1000 µg/mL
- MIC [2]: > 1000 µg/mL
- MIC [3]: > 1000 µg/mL
- MIC [4]: > 1000 µg/mL
- MIC [5]: > 1000 µg/mL
- MIC [6]: > 1000 µg/mL
- MIC [7]: > 1000 µg/mL
Compound: Cc1ccc(NC(=S)NC(=O)c2cnn(C)c2)cc1
